Results reported in US9682056B2, “Oleacein for treating or preventing diseases resulting from atherosclerotic plaques” (Warszawski Uniwersytet Medyczny, priority 2012, dated 2017).

Assays:
[1] = tested on: interleukin 10 (IL-10) production; test: IL-10 production by atherosclerotic plaque, ELISA; assay type: cell-based, human; settings: IL-10 amount per atherosclerotic plaque mass, % of stimulated control
Excerpt: The effects of olacein on interleukin 10 (IL-10) production were investigated with the use of the ELISA immunochemical method (R&D system). The IL-10 amounts were converted into the atherosclerotic plaque mass and, subsequently, determined in % compared to the stimulated control.

[2] = tested on: metalloproteinase-9 (MMP-9) production; test: MMP-9 production by LPS-stimulated atherosclerotic plaque from carotid artery, ELISA; assay type: cell-based; settings: Homo sapiens; plaques (n=15) from endoartherectomy patients; LPS 1 μg/ml stimulation; 24 hours at 37° C.; average±standard error; read-out: IC50, inhibition of MMP-9 production
Experimental: Atherosclerotic plaques (n=15) were obtained from patients subjected to endoartherectomy. The plaque obtained was divided into two portions, which were then incubated in buffered physiological saline (control), or buffered physiological saline in the presence of oleacein at the concentrations of 5, 10 and 20 μM for 24 hours at a temperature of 37° C. following prior stimulation with a solution of lipopolysaccharide at a concentration of 1 μg/ml. The unstimulated control consisted of physiological saline, in which the plaque was incubated for […]. The effect of oleacein on metalloproteinase-9 (MMP-9) production was determined using immunochemical ELISA (R&D System). The amount of MMP-9 (ng/ml) was calculated per mass of atherosclerotic plaque, and then described in terms of percentage in comparison to the stimulated control.

IC50 [2]: 9.07 ± 1.2 µM
Compound: C/C=C(/C=O)[C@@H](CC=O)CC(=O)OCCc1ccc(O)c(O)c1 [oleacein]
IL-10 production compared to the stimulated control [1]: about 267.1±61.5%
